Several values for one entry are separate records, joined by “and”; a condition that tells them apart may be missing. Equal values may be shown once.
How the values were obtained:
[1] = test system: genotype 1 HCV; test: Study VX-222-102 Part A: HCV RNA analyses (viral load reduction); type: in vivo, Hepatitis C virus
Experimental: (§1) In Part A of Study 102 subjects were randomized to VX-222 or placebo in a 6:2 (VX-222: placebo) allocation ratio to either Cohort 1, Cohort 2, Cohort 3, or Cohort 4. Subjects enrolled in Cohort 1, Cohort 2, and Cohort 3 were administered 250 mg, 500 mf, or 750 mg VX-222 or placebo twice daily (b.i.d.) for 3 days, respectively. Subjects enrolled in Cohort 4 were administered 1,500 mg VX-222 or placebo once daily (qd) for 3 days. Standard of care treatment, Peg-IFN-alpha-2a and RBV was offered to the subjects at the end of dosing in Part A for up to 48 weeks, if judged appropriate by the physician.
Additional results of Study VX-222-102 are described in FIGS. 2-8: Thirty-two treatment-naïve patients with chronic genotype 1 HCV infection were enrolled in the trial, including six patients in each dose group who received 250 mg of VX-222 BID, 500 mg of VX-222 BID, 750 mg of VX-222 BID, and 1,500 mg of VX-222 QD. Two patients received placebo in each of the four dosing groups, for a total of eight patients who received placebo. Part A of the trial was conducted at 10 centers in the United States, Canada and Argentina. Of the patients enrolled in the trial, 24 patients had genotype 1a HCV infection and eight patients had genotype 1b HCV infection. Six of the patients enrolled in the trial were African American, 25 were Caucasian.
(§2) Study Design a& Population Multicenter, randomized, double-blinded, placebo-controlled, dose-ranging study HCV genotype 1-infected patients With no evidence of cirrhosis ALT values<5×ULM Plasma HCV RNA of ≧5 log10 IU/mL at screening 4-arm comparative study (6:2 randomization VX-222: placebo) Enrollment in this dosing—ranging study was sequential 250 mg BID for 3 days 500 mg BID for 3 days 750 mg BID for 3 days 1500 mg QD for 3 days.

[2] = Study VX-222-102 Part A: PK and safety of VX-222 in HCV infected subjects, 3 days; type: in vivo, human
Experimental: as §1
Subjects with genotype 1 chronic hepatitis C infection were exposed to multiple doses of VX-222 or placebo at 250 mg (Cohort 1), 500 mg (Cohort 2), or 750 mg (Cohort 3) b.i.d. for 3 days. […] The majority of the reported adverse events were mild in severity and there were no untoward adverse incidences or trends.
as §2

[3] = test system: Huh-7, ET replicon cells (HCV replicon I389luc-ubi-neo/NS3-3'/5.1); test: Drug combination luciferase assay (4-day, MacSynergy analysis); type: cell-based, Hepatitis C virus; conditions: combination with VX-950, 4 days
Text: Replicon cell lines Huh-7, ET cells derived from the Huh-7 hepatocarcinoma cell line are obtained from Dr. Ralf Bartenschlager (Bartenschlager, R. Innovation: Hepatitis C virus replicons: potential role for drug development. Nat. Rev. Drug Discov. 2002, 1, 911-916. Krieger, N.; Lohmann, V.; Bartenschlager, R. Enhancement of hepatitis C virus RNA replication by cell culture-adaptive mutations. J. Virol. 2001, 75, 4614-4624. Lohmann, V.; Korner, F.; Koch, J.-O.; Herian, U.; Theilmann, L.; Bartenschlager, R. Replication of subgenomic hepatitis C virus RNAs in a hepatoma cell line. Science. 1999, 285, 110-113.) (Reblikon GmbH, Gau-Odernheim, Germany). […]
Huh-7, ET replicon cells are seeded in white opaque 96-well cell culture microtiter plates at sub-confluent density (3×10^3 cells per well) in a volume of 100 μL media. […] Plates are read for Luciferase counts using a luminometer (Wallac MicroBeta Trilux, Perkin Elmer™, MA, USA). […]

[4] = test system: genotype 1 chronic HCV; test: ZENITH Phase 2a study: VX-222 in combination with telaprevir (DUAL, QUAD)
[5] = PK parameters of VX-222 in Study 101 Part C and Study 102 Part A; type: in vivo, human; conditions: 250 to 750 mg b.i.d.
Experimental: In Part C of Study 101, VX-222 was administered as multiple doses of 750 mg b.i.d. to treatment-naïve subjects with chronic hepatitis C for 3 days. In addition, in Part A of Study 102, VX-222 was administered as multiple doses ranging from 250 mg to 750 mg BID and 1500 mg once a day to treatment-naïve subjects with chronic hepatitis C for 3 days. The PK parameters of VX-222 assessed in Study 101 (final data) and Study 102 (preliminary data) are outlined below: […]

[6] = Study VX-222-002: combination treatment with VX-222 and VX-950 in healthy subjects (PK, safety); conditions: Treatment Period 3: VX-222 and VX-950 simultaneously for 10 days, preliminary
[7] = 500 mg b.i.d., Day 3, HCV infected subjects

CC1CCC(C(=O)N(c2cc(C#CC(C)(C)C)sc2C(=O)O)C2CCC(O)CC2)CC1 (stereo not drawn) [VX-222, 5-(3,3-Dimethylbut-1-ynyl)-3-[(trans-4-hydroxycyclohexyl)-(4-trans methylcyclohexanecarbonyl)amino]thiophene-2-carboxylic acid]
Viral Load Reduction at Day 4, Mean ([1]; 250 mg b.i.d. for 3 days): −3.1
Viral Load Reduction at Day 4, Mean ([1]; 500 mg b.i.d. for 3 days): −3.4
Viral Load Reduction at Day 4, Mean ([1]; 750 mg b.i.d. for 3 days): −3.2
AUC0-12 hr Geometric Mean [2, 7]: 29.848 µg·h/mL
tmax Median [2, 7]: 2.5 h
most frequently reported adverse events (at least two patients per dose group) ([2]; blinded, pooled data for placebo or VX-222): diarrhea, headache, nausea, asthenia and fever
tolerability ([2]; blinded, pooled data for placebo or VX-222, four dose groups): well-tolerated across all four dose groups
synergy class with VX-950 (MacSynergy) [3]: Moderated synergy (50 uM^2%-100 uM^2%: Moderated synergy)
volume of synergy with VX-950 (MacSynergy) ([3]; listed as 1): 90 uM^2% and 86 uM^2%
viral breakthrough rate ([4]; DUAL treatment arms (VX-222 with telaprevir alone), 2-sided 90% confidence interval): > 25%
patients eligible (undetectable HCV RNA at Weeks 2 and 8) to stop treatment after 12 weeks ([4]; higher VX-222 dose in the QUAD regimen (with telaprevir, peginterferon/ribavirin)): 50%
dose proportionality of exposures [5]: increased in an approximately dose proportional manner
severe or SAEs [6]: no reported severe or SAEs

From patent US20130273003A1, “Therapies for Treating Hepatitis C Virus Infection” (priority 2012, published 2013)
